Laboratory results: ChEMBL document CHEMBL4680246, “Design, synthesis and biological evaluation of novel O-carbamoyl ferulamide derivatives as multi-target-directed ligands for the treatment of Alzheimer's disease” (Eur J Med Chem, 2020)
The source made the active and inactive calls. The rule behind the calls is not given here.

What was measured:
Acetylcholinesterase [1] = target: Acetylcholinesterase (Homo sapiens, UniProt P22303); assay: Inhibition of human erythrocytes AChE using acetylcholine iodide as substrate incubated for 15 mins by Ellman's method
Chain of Acetylcholinesterase (Homo sapiens, UniProt P22303) (P22303 whole entry): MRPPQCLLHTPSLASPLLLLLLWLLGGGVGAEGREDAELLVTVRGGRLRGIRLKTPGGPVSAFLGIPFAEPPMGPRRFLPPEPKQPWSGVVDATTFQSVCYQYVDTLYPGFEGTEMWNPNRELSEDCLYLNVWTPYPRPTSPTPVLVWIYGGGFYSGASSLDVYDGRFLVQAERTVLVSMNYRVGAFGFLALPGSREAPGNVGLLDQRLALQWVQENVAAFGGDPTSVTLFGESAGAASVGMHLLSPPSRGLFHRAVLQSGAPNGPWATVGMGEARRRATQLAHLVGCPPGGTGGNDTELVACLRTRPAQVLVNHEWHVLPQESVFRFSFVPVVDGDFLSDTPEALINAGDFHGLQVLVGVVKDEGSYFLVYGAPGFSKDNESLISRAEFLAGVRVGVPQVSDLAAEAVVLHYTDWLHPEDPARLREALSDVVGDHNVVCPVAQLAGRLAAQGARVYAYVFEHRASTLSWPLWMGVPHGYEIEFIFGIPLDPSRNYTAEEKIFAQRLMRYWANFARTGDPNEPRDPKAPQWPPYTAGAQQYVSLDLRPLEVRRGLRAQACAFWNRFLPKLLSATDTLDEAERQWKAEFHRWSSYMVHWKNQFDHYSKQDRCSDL

[2] = target: T1, Amine oxidase [flavin-containing] A (Homo sapiens, UniProt P21397); assay: Inhibition of recombinant human MAO-A
T1 sequence (P21397 whole entry): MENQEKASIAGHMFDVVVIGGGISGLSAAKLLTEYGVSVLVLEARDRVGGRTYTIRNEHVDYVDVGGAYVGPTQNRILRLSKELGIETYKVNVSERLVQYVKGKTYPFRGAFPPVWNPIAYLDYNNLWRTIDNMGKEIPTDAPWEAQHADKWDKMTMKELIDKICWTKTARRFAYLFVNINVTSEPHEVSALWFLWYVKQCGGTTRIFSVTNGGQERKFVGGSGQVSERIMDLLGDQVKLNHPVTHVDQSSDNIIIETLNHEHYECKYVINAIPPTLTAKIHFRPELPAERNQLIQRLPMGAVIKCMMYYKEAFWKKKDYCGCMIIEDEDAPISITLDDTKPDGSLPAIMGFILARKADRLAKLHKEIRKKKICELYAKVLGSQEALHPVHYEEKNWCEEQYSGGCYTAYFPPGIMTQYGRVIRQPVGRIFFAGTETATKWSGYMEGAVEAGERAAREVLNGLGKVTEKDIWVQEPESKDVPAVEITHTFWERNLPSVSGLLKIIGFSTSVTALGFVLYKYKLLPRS

[3] = Selectivity index, ratio of IC50 for Electrophorus electricus AChE to IC50 for equine serum BuChE
Homo sapiens [4] = species: Homo sapiens; assay: Selectivity index, ratio of IC50 for recombinant human MAO-A to IC50 for recombinant human MAO-B
Homo sapiens [5] = species: Homo sapiens; assay: Selectivity index, ratio of IC50 for human erythrocytes Ache to IC50 for human serum BuChe
Acetylcholinesterase [6] = target: Acetylcholinesterase (Electrophorus electricus, UniProt O42275); assay: Inhibition of Electrophorus electricus AChE using acetylcholine iodide as substrate incubated for 15 mins by Ellman's method
Chain of Acetylcholinesterase (Electrophorus electricus, UniProt O42275) (O42275 whole entry): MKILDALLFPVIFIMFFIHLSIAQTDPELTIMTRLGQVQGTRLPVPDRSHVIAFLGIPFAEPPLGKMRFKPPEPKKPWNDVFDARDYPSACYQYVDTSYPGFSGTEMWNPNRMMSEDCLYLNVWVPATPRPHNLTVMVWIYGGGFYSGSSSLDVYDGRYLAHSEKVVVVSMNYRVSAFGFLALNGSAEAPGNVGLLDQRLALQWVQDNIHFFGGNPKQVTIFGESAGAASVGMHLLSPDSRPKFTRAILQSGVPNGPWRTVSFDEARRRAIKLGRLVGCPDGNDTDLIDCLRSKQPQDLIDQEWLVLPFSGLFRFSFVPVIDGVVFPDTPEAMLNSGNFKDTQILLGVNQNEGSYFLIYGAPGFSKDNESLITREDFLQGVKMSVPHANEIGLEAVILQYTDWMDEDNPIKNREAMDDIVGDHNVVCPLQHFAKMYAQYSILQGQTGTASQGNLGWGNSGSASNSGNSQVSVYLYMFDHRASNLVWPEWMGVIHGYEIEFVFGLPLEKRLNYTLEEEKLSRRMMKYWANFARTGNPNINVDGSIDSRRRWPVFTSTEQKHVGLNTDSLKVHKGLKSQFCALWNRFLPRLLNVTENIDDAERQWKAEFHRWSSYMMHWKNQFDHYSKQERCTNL

Cholinesterase [7] = target: Cholinesterase (Homo sapiens, UniProt P06276); assay: Inhibition of human serum BuChE using acetylcholine iodide as substrate incubated for 15 mins by Ellman's method
Chain of Cholinesterase (Homo sapiens, UniProt P06276) (P06276 whole entry): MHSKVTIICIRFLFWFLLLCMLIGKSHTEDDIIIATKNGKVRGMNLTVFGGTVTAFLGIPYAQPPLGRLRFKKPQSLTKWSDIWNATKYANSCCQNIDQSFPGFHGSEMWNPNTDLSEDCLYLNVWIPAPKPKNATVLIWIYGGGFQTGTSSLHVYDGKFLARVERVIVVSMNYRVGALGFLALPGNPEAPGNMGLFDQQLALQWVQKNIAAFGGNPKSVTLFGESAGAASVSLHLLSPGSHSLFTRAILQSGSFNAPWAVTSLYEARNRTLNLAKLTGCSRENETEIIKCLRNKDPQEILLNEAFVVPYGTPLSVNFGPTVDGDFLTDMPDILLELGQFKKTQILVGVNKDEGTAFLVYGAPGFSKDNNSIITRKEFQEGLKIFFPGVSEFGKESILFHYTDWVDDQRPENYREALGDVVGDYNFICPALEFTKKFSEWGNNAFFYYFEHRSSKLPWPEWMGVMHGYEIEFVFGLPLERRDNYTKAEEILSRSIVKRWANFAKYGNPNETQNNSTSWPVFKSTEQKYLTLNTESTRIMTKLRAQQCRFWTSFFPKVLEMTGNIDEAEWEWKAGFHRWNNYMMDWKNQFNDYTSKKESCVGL

Cholinesterase [8] = target: Cholinesterase (Equus caballus, UniProt P81908); assay: Inhibition of equine serum BuChE using BTC as substrate after 15 mins by Ellman's method
Chain of Cholinesterase (Equus caballus, UniProt P81908) (P81908 whole entry): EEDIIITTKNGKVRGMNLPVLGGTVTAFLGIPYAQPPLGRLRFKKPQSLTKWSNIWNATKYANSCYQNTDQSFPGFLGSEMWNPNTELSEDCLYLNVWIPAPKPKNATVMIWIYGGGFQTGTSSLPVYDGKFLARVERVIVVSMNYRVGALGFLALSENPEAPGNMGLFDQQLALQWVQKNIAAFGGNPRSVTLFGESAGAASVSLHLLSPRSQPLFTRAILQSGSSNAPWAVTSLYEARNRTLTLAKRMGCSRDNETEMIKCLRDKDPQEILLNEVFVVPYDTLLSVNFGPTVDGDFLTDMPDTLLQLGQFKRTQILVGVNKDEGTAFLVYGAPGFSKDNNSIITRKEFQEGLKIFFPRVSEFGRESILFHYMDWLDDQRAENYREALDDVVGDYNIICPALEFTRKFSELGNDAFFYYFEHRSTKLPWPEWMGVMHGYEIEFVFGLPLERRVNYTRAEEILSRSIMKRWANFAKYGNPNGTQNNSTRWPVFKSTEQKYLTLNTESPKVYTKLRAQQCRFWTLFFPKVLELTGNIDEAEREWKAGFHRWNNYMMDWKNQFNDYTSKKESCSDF

[9] = target: T2, Amine oxidase [flavin-containing] B (Homo sapiens, UniProt P27338); assay: Inhibition of recombinant human MAO-B
T2 sequence (P27338 whole entry): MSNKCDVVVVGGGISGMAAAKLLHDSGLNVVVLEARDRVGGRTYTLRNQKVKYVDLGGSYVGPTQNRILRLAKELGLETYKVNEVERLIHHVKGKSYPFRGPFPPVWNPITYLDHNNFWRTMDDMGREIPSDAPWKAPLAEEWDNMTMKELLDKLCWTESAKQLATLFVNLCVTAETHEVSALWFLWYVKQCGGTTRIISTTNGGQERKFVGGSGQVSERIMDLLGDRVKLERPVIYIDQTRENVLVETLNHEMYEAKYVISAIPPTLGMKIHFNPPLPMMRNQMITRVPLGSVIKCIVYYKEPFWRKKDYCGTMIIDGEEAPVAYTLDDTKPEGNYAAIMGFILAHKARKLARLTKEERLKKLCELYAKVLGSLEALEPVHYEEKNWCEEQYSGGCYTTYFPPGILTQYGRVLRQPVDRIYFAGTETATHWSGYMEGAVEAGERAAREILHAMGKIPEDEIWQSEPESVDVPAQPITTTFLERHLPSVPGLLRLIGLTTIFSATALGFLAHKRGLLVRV

[10] = target: Cholinesterase (Equus caballus) (UniProt P81908); assay: Inhibition of equine serum BuChE at 25 uM using BTC as substrate after 15 mins by Ellman's method relative to control
Chain of Cholinesterase (Equus caballus) (P81908 whole entry, the tested form may be a part): as the sequence (P81908 whole entry) above

[11] = target: Amyloid-beta precursor protein (Homo sapiens) (UniProt P05067); assay: Inhibition of self-induced Amyloid beta (1 to 42 residues) (unknown origin) aggregation at 25 uM measured after 24 hrs by thioflavin T-based fluorimetric assay relative to control
Chain of Amyloid-beta precursor protein (Homo sapiens) (P05067 whole entry, the tested form may be a part): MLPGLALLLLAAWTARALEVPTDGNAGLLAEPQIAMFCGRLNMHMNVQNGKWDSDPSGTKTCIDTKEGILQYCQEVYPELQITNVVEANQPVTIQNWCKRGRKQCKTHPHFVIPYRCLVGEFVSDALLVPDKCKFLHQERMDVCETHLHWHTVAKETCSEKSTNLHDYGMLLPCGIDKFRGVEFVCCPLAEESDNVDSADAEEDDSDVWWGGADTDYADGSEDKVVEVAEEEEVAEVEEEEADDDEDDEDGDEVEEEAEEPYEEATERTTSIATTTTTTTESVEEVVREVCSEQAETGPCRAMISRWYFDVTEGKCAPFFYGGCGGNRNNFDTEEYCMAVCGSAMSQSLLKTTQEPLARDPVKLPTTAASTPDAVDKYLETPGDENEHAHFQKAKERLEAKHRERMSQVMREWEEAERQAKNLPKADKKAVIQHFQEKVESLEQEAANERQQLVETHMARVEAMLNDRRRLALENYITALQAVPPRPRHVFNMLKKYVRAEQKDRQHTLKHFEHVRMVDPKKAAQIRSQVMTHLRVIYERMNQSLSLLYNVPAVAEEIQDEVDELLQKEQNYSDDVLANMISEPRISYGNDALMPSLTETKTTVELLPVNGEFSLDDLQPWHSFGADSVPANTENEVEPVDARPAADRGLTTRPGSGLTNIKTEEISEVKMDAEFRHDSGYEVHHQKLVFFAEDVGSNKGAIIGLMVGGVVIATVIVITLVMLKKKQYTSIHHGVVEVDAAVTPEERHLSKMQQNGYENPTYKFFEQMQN

Mus musculus = assay: Improvement in cognitive impairment in scopolamine-induced mouse model of amnesia assessed as increase in spontaneous alteration at 10 mg/kg by Y-maze test; assay type: functional, organism-based

CCN(C)C(=O)Oc1ccc(/C=C/C(=O)N2CCCCC2)cc1OC
IC50 (Acetylcholinesterase [1]): 10.7 µM
IC50 [2]: 29.6 µM
Ratio IC50 [3]: 0.78
Ratio IC50 (Homo sapiens [4]): 1.8
Ratio IC50 (Homo sapiens [5]): 0.85
IC50 (Acetylcholinesterase [6]): 15.3 µM
IC50 (Cholinesterase [7]): 12.6 µM
IC50 (Cholinesterase [8]): 19.6 µM
IC50 [9]: 16.3 µM

COc1cc(/C=C/C(=O)N2CCc3ccccc3C2)ccc1OC(=O)N(C)OC
IC50 (Acetylcholinesterase [1]): 12.3 µM
IC50 [2]: 22.2 µM
Ratio IC50 [3]: 0.4
Ratio IC50 (Homo sapiens [4]): 3.3
Ratio IC50 (Homo sapiens [5]): 0.76
IC50 (Acetylcholinesterase [6]): 11.8 µM
IC50 (Cholinesterase [7]): 16.2 µM
IC50 (Cholinesterase [8]): 29.2 µM
IC50 [9]: 6.8 µM

CCN(C)C(=O)Oc1ccc(/C=C/C(=O)N2CCN(Cc3ccccc3)CC2)cc1
IC50 (Acetylcholinesterase [1]): 14.8 µM
IC50 [2]: 9.8 µM
Ratio IC50 [3]: 1.3
Ratio IC50 (Homo sapiens [4]): 0.5
Ratio IC50 (Homo sapiens [5]): 0.5
IC50 (Acetylcholinesterase [6]): 25.6 µM
IC50 (Cholinesterase [7]): 29.7 µM
IC50 (Cholinesterase [8]): 20.3 µM
IC50 [9]: 21.3 µM

COc1cc(/C=C/C(=O)N2CCCCC2)ccc1OC(=O)N(c1ccccc1)c1ccccc1
IC50 (Acetylcholinesterase [1]): 27.2 µM
IC50 [2]: 46.2 µM
inhibition [10]: 20%
Ratio IC50 (Homo sapiens [4]): 2.1
Ratio IC50 (Homo sapiens [5]): 1.2
IC50 (Acetylcholinesterase [6]): 21.8 µM
IC50 (Cholinesterase [7]): 22.9 µM
IC50 (Cholinesterase [8]): 98.5 µM
IC50 [9]: 21.8 µM

CCN(Cc1ccccc1)C(=O)/C=C/c1ccc(OC(=O)N(c2ccccc2)c2ccccc2)c(OC)c1
IC50 (Acetylcholinesterase [1]): 28.1 µM
IC50 [2]: 24.6 µM
Ratio IC50 [3]: 0.77
Ratio IC50 (Homo sapiens [4]): 1.5
Ratio IC50 (Homo sapiens [5]): 1.1
IC50 (Acetylcholinesterase [6]): 18.9 µM
IC50 (Cholinesterase [7]): 25.3 µM
IC50 (Cholinesterase [8]): 24.6 µM
IC50 [9]: 15.9 µM

CCN(CC)C(=O)Oc1ccc(/C=C/C(=O)N2CCC(Cc3ccccc3)CC2)cc1OC
IC50 (Acetylcholinesterase [1]): 19.7 µM
IC50 [2]: 7.8 µM
Ratio IC50 [3]: 9.1
Ratio IC50 (Homo sapiens [4]): 1.5
Ratio IC50 (Homo sapiens [5]): 3.9
inhibition [11]: 49.7%
IC50 (Acetylcholinesterase [6]): 25.6 µM
IC50 (Cholinesterase [7]): 5.1 µM
IC50 (Cholinesterase [8]): 2.8 µM
IC50 [9]: 5.13 µM

COc1cc(/C=C/C(=O)N2CCCCC2)ccc1OC(=O)N(C)C
IC50 (Acetylcholinesterase [1]): 9.1 µM
IC50 [2]: 33.3 µM
Ratio IC50 [3]: 0.67
Ratio IC50 (Homo sapiens [4]): 1
Ratio IC50 (Homo sapiens [5]): 0.69
IC50 (Acetylcholinesterase [6]): 17.5 µM
IC50 (Cholinesterase [7]): 13.1 µM
IC50 (Cholinesterase [8]): 26.3 µM
IC50 [9]: 32.5 µM

COc1cc(/C=C/C(=O)N2CCc3ccccc3C2)ccc1OC(=O)N(c1ccccc1)c1ccccc1
IC50 (Acetylcholinesterase [1]): 30.5 µM
IC50 [2]: 16.9 µM
Ratio IC50 (Homo sapiens [4]): 1.4
Ratio IC50 (Homo sapiens [5]): 1.2
IC50 (Acetylcholinesterase [6]): 93.2 µM
IC50 (Cholinesterase [7]): 25.8 µM
IC50 (Cholinesterase [8]): 23.9 µM
IC50 [9]: 12.2 µM

CC(=O)OCC[N+](C)(C)C
Activity (Mus musculus): inactive

COc1cc(/C=C/C(=O)N2CCC(Cc3ccccc3)CC2)ccc1OC(=O)N(C)C
IC50 (Acetylcholinesterase [1]): 16.6 µM
IC50 [2]: 16.3 µM
Ratio IC50 [3]: 14.5
Ratio IC50 (Homo sapiens [4]): 1.8
Ratio IC50 (Homo sapiens [5]): 2.2
inhibition [11]: 56.6%
IC50 (Acetylcholinesterase [6]): 18.9 µM
IC50 (Cholinesterase [7]): 7.6 µM
IC50 (Cholinesterase [8]): 1.3 µM
IC50 [9]: 8.9 µM

COc1cc(/C=C/C(=O)N2CCC(Cc3ccccc3)CC2)ccc1OC(=O)N(c1ccccc1)c1ccccc1
IC50 (Acetylcholinesterase [1]): 32.1 µM
IC50 [2]: 34.6 µM
inhibition [10]: 6.6%
Ratio IC50 (Homo sapiens [4]): 2.6
Ratio IC50 (Homo sapiens [5]): 0.9
IC50 (Acetylcholinesterase [6]): 88.3 µM
IC50 (Cholinesterase [7]): 36.7 µM
IC50 (Cholinesterase [8]): > 100 µM
IC50 [9]: 13.3 µM
